Consider one compound from patent publication US9616037B2, “Aryl-phenyl-sulfonamido-cycloalkyl compounds and their use” (PIMCO 2664 Limited, priority 2008, dated 2017).

SMILES strings stand for the structures. Converted amounts (≈) assume the structure as drawn.

Series [1] can be described thus: Thermodynamic aqueous solubility in fasted state simulated intestinal fluid (FaSSIF). As to conditions: pH 6.5, thermodynamic from solid, equilibrated at 25° C. for 24 hours, HPLC. Type of series: physicochemical. The method, then:
(§1) Initial screening of candidate compounds was performed using in vitro assays to determine potency, metabolic stability and solubility in biologically relevant fluids. Potency was assessed using a viability assay based on the survival of the J774 macrophage cell line. […] Like osteoclasts, J774 macrophages are dependent on continued NFκB activation for survival, thereby providing a valuable screen for compounds with anti-inflammatory activity. Metabolic stability was measured by determining the rate of disappearance of compound in the presence of human liver microsomal preparations, as quantified by LC-MS/MS. Solubility was measured by equilibration of the compound in fasted state simulated intestinal fluid (FaSSIF) and quantified by HPLC.
Thermodynamic aqueous solubility was measured by equilibration of a number of APSAC compounds, in the solid state, with fasted state simulated intestinal fluid (FaSSIF) and quantified by HPLC. Measurement of solubility in FaSSIF provides a valuable model for the prediction of drug dissolution following oral administration.
The pH was adjusted to 6.5 using 1 M NaOH solution.
0.6 mL of a solution containing 100 mg/mL lecithin in methylene chloride was added. The methylene chloride was eliminated under vacuum at about 40° C. The vacuum was drawn for 15 minutes at 250 mbar, followed by 15 minutes at 100 mbar. […] After cooling to room temperature, the solution was then adjusted to 100 mL with blank FaSSIF.
The suspension was equilibrated at 25° C. for 24 hours, and then the pH was measured. The suspension was then filtered through a glass fibre C filter into a 96-well plate. The filtrate was then diluted by a factor of 100. Quantification was made by HPLC with reference to a standard solution of compound at approximately 0.1 mg/mL in DMSO. Different volumes of the standard, diluted and undiluted sample solutions were injected. […] Analysis was performed on an Agilent HP1100 series system equipped with a diode array detector and using ChemStation software vB.02.01-SR1.

For the next series, the system named is J774 macrophages. The series is described as follows: Alamar Blue macrophage J774 viability assay. Type of series: cell-based. As to conditions: Mus musculus; J774 cells, 72 hours with compound, Alamar Blue readout; read-out: IC50. How it is done:
Initial screening of candidate compounds was performed using in vitro assays to determine potency, metabolic stability and solubility in biologically relevant fluids. Potency was assessed using a viability assay based on the survival of the J774 macrophage cell line. Macrophages are closely related to osteoclasts and have been used previously as a model system for osteoclast survival (see, e.g., Luckman et al., 1998). Like osteoclasts, J774 macrophages are dependent on continued NFκB activation for survival, thereby providing a valuable screen for compounds with anti-inflammatory activity. Metabolic stability was measured by determining the rate of disappearance of compound in the presence of human liver microsomal preparations, as quantified by LC-MS/MS. Solubility was measured by equilibration of the compound in fasted state simulated intestinal fluid (FaSSIF) and quantified by HPLC.
In vitro potency as anti-inflammatory agents was determined for a number of APSAC compounds by incubation with J774 macrophages and subsequent determination of cell viability.
J774 cells were plated at 10^4 cells per well in 100 μL αMEM (α Modified Eagle Medium) in 96-well plates and grown overnight. The next day, test compounds were added to the cultures, and cultures were continued for another 72 hours. At the end of the culture period, cell survival was determined using an Alamar Blue assay as previously described (see, e.g., Nociari et al., 1998).
Alamar Blue is an oxidation-reduction sensitive indicator. The dye itself is in the oxidised state, which is blue and non-fluorescent. The dye can accept electrons from reducing species, such as NADPH and FADH, to form a reduced dye species, which is red and fluorescent. Thus the transformation from oxidised form to reduced form can be measured by fluorimetric or colourimetric means. For fluorescence measurements, 530-560 nm excitation and 590 nm emission wavelengths are typically used. For colourimetric measurements, absorbance at 570 nm (reduced form) and 600 nm (oxidised form) is typically measured. A simple calculation is performed to determine the relative quantities of the two species.
A high ratio of the reducing species, NADPH and FADH, to the corresponding oxidised species, NADP and FAD, is an indicator that cells are proliferating and viable. A low ratio indicates cells that are quiescent or non-viable.
Briefly, Alamar Blue (Biosource International) was added undiluted to the each well (1:10 v/v, 10 μL). The plate was incubated at 37° C. for 3-4 hours and the fluorescence was measured at 590 nm, with a 25 nm bandwidth. A high reading indicated cells with normal viability, and a low reading indicated cells that have been damaged and are no longer proliferating normally. The controls gave a high fluorescence reading, indicating a high number of live, healthy cells. A potent test compound gave a low fluorescence reading. The average results for each test compound (n=5) were expressed as a percent (%) of the average control value.
Addition of Compounds. All of the compounds studied were made up as 100 mM solutions in DMSO. These stock solutions were then diluted 1000-10000× in culture medium (αMEM). From these 100 μM or 10 μM solutions, convenient quantities (3-33 μL) were added directly to the wells so as to give the desired final compound concentration.
In general terms: Resazurin is reduced to fluorescent resorufin, in cell work by metabolically active cells.

Series [2] can be described thus: Human liver microsomal stability assay. The class given is in vitro ADME. As to conditions: both sexes, pH 7.4; pooled human liver microsomes 0.5 mg/mL, 3 μM compound, NADPH, 45 minute incubation. The method, then:
as §1
Metabolic stability of APSAC derivatives was measured by determination of the rate of compound disappearance when incubated in the presence of human liver microsomes. Liver microsomes are prepared from the endoplasmic reticulum of hepatocytes and are the primary source of the most important enzymes (cytochrome P450) involved in drug metabolism. Study of drug stability in the presence of liver microsomes is accepted as a valuable model permitting rapid prediction of in vivo drug stability.
Human liver microsomes were obtained from a commercial source. Test compounds (3 μM) were incubated with pooled liver microsomes (male and female). Samples were incubated for a 45 minute period and removed at 5 time points and test compounds were analysed by LC-MS/MS.
The final incubation volume was 25 μL. A control incubation was included for each compound tested, where 0.1 M phosphate buffer pH 7.4 was added instead of NADPH. The control compounds testosterone and 7-hydroxycoumarin were included in each experiment and all incubations were performed singularly for each compound.
Each compound was incubated for 0, 5, 15, 30, and 45 minutes. The control (minus NADPH) was incubated for 45 minutes only. […] The incubation plates were centrifuged at 2500 rpm for 20 minutes at 4° C. to precipitate the protein.
Following protein precipitation, the sample supernatants were combined in cassettes of up to 4 compounds and analysed using standard LC-MS/MS conditions.
From a plot of the natural logarithm of the peak area ratio (i.e., the ratio of compound peak area:internal standard peak area) against time, the gradient of the line was determined. Subsequently, half-life and intrinsic clearance were calculated using the equations below: Eliminated rate constant (k)=(−gradient). […] Pharmacokinetics Studies

The next series relates to caspase 3. The series is described as follows: Caspase induction study (Nucview488 fluorogenic substrate) in the presence of TNFα. As to conditions: human monocytes, 10 μM test compound, 10 ng/mL TNFα, Nucview488 stain. The class given is cell-based. How it is done:
The ability to activate caspase 3 was studied using a fluorogenic enzyme substrate assay.
Briefly, human primary monocytes were isolated from whole blood using Ficoll gradients. The resulting cells were plated into microwell plates for 24 hours after which non-adherent cells were removed by washing. Cells were differentiated in the presence of 100 ng/mL MCSF. Cells were pre-treated with 10 μM test compound for 1 hour prior to stimulation with 10 ng/mL TNFα. Caspase 3 activation as an indicator of apoptosis was detected using the Nucview488 stain, which was added one hour prior to visualisation. The Nucview488 stain indicates the activation of caspase 3 (CPP32, apopain, YAMA), a cysteine peptidase which plays a key role in the induction of apoptosis in individual whole mammalian cells. Essentially, Nucview488 consists of a fluorogenic DNA dye and a DEVD substrate moiety specific for caspase 3. In itself, Nucview488 is nonfluorescent. However, upon entering the cell cytoplasm, Nucview488 is cleaved by caspase 3 to form a high-affinity DNA dye. The released DNA dye migrates to the cell nucleus to stain the nucleus bright green. This fluorescent staining produced in response to caspase 3 activity is monitored using fluorescent light microscopy.

As usually defined, the solubility is how much of the substance goes into solution per volume. A higher solubility goes with much dissolved substance. By IC50 is commonly meant the point on the concentration scale where inhibition reaches its midpoint. Usually half-life stands for the time needed for the level to fall by half in the phase considered. A high value points to slow loss. `O=S(=O)(N[C@H]1CC[C@H](O)CC1)c1ccc(-c2ccc(F)cc2F)cc1` [ABD599, 2′,4′-Difluoro-N-(trans-4-hydroxycyclohexyl)biphenyl-4-sulfonamide] displayed a solubility at 24 h in series [1] of 30 µg/mL (≈ 81.7 µM). In addition, the IC50 in the series on J774 macrophages was found to be 70 nM. This compound displayed a half-life at 3 µM in series [2] of 4.78 h. The “caspase 3 activation (fluorescence detected by light microscopy)” value with caspase 3 is “significant activation of caspase 3”.
